In the assay the target is hTRPV3 (Homo sapiens (Human), UniProt Q8NET8). The assay is described as follows: Whole-cell patch clamp, hTRPV3 Phase 1 / Phase 2 currents. It is filed as cell-based. The note with it: for pIC50: inward, whole-cell patch clamp. A digest of the protocol: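 Whole-cell recordings on induced TRPV3 cells replated on coverslips, held at −40 mV with 400 ms ramps from −120 to +100 mV every 5 s; currents read at −80 and +80 mV. Ringer's external solution; current activated by heating to ≥28 °C or 20 μM 2-APB.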
Chain of hTRPV3 (Q8NET8 whole entry): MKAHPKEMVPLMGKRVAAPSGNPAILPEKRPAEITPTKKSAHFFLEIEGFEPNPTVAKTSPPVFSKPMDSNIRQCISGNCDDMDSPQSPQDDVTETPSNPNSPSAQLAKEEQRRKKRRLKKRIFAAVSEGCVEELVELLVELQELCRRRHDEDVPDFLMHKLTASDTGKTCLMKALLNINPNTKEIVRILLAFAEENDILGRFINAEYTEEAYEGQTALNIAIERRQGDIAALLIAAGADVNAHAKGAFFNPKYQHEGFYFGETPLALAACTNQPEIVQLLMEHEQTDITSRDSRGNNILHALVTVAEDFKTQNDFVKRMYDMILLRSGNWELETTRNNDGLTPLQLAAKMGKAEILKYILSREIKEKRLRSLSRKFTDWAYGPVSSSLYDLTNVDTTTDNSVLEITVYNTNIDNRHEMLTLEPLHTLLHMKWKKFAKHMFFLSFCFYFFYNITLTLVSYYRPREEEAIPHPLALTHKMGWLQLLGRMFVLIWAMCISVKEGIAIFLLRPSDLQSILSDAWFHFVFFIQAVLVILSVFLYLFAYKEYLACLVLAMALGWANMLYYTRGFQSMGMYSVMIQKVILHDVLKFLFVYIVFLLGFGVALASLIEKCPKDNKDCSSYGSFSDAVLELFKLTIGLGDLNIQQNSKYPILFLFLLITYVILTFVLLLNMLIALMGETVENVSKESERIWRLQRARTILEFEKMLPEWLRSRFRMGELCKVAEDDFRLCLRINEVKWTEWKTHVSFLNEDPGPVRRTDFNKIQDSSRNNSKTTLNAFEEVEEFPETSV
(In general: The patch-clamp technique gives a direct electrical read-out from membranes.)

The mark [1] stands for this setting: Phase 1 current, read-out: hTRPV3 Patch P1 Inwd.
Setting [2] is: Phase 1 current, read-out: hTRPV3 (nM) (Phase 1).
The mark [3] stands for this setting: Phase 2 current, read-out: hTRPV3 Patch P2 Inwd.
The mark [4] stands for this setting: Phase 2 current, read-out: hTRPV3 (nM) (Phase 2).

pIC50: −log10 of the molar value. Where two headings read alike, the source gives them in different places.

Consider `CC(C)c1ccccc1Oc1ccc(N2CC[C@H](Oc3ncccc3F)C2)c(CCO)c1` [Compound 1-331, (S)-2-(2-(3-(3-fluoropyridin-2-yloxy)pyrrolidin-1-yl)-5-(2-isopropylphenoxy)phenyl)ethanol], for which the pIC50 under setting [1] is 7.00 to 8.00. The IC50 under setting [2] stood at 28 nM.

As to `O=C(c1ccc(N2CC[C@H](Oc3ccccn3)C2)c(CO)c1)c1ccccc1Cl` [Compound 1-332, (S)-(2-chlorophenyl)(3-(hydroxymethyl)-4-(3-(pyridin-2-yloxy)pyrrolidin-1-yl)phenyl) methanone], the pIC50 was below 6.00 under setting [1] and below 6.00 under setting [3]. For the same compound, the IC50 under setting [2] is above 3200 nM and the IC50 under setting [4] was above 3200 nM.

Take `OCc1cc(Oc2ccccc2F)ccc1N1CC[C@H](Oc2ccccn2)C1` [Compound 1-333]: the pIC50 runs as follows: under setting [1], 6.00 to 7.00; under setting [3], 6.00 to 7.00. The IC50 under setting [2] turned out to be 207 nM and the IC50 under setting [4] came out at 111 nM.

Take `OCCc1cc(Oc2ccccc2F)ccc1N1CC[C@H](Oc2ccccn2)C1` [Compound 1-334]: the pIC50 under setting [1] is 6.00 to 7.00 and the pIC50 under setting [3] is 6.00 to 7.00. The IC50 is 289 nM under setting [2] and around 243 nM under setting [4].

For `CCc1ccccc1Oc1ccc(N2CC[C@H](Oc3ccccn3)C2)c(CCO)c1` [Compound 1-335], under setting [1], the pIC50 is 7.00 to 8.00. The IC50 under setting [2] amounted to 66.3 nM.

For `COc1ccccc1Oc1ccc(N2CC[C@H](Oc3ccc(F)cn3)C2)c(CO)c1` [Compound 1-336, (S)-(2-(3-(5-fluoropyridin-2-yloxy)pyrrolidin-1-yl)-5-(2-methoxyphenoxy)phenyl)methanol], the pIC50 runs as follows: under setting [1], 6.00 to 7.00; under setting [3], 6.00 to 7.00. In addition, the IC50 turned out to be 329 nM under setting [2] and 384 nM under setting [4].

Turning to `CN(C(=O)c1ccc(N2CC[C@H](Oc3ncccc3Cl)C2)c(CCO)c1)c1ccccc1` [Compound 1-337, (S)-4-(3-(3-chloropyridin-2-yloxy)pyrrolidin-1-yl)-3-(2-hydroxyethyl)-N-methyl-N-phenylbenzamide], under setting [1], the pIC50 was below 6.00. Moreover, the IC50 under setting [2] was above 3200 nM.

Consider `OCc1cc(C(O)c2ccccc2Cl)ccc1N1CC[C@H](Oc2ccccn2)C1` (stereo partly drawn) [Compound 1-338, (2-chlorophenyl)(3-(hydroxymethyl)-4-((S)-3-(pyridin-2-yloxy)pyrrolidin-1-yl)phenyl)methanol], for which, under setting [1], the pIC50 is 6.00 to 7.00. Besides, the IC50 under setting [2] worked out at 196 nM.

Consider `COc1ccccc1Oc1ccc(N2CC[C@H](Oc3ccccn3)C2)c(CO)c1` [Compound 1-339, (S)-(5-(2-methoxyphenoxy)-2-(3-(pyridin-2-yloxy)pyrrolidin-1-yl)phenyl)methanol], for which the pIC50 under setting [1] was 6.00 to 7.00. Moreover, under setting [2], the IC50 is 521 nM.

Regarding `COCc1ccccc1Oc1ccc(N2CC[C@H](Oc3ccc(F)cn3)C2)c(CCO)c1` [Compound 1-341, (S)-2-(2-(3-(5-fluoropyridin-2-yloxy)pyrrolidin-1-yl)-5-(2-(methoxymethyl)phenoxy)phenyl)ethanol], the pIC50 is 6.00 to 7.00 under setting [1] and 6.00 to 7.00 under setting [3]. In addition, the IC50 was determined as 877 nM under setting [2] and 748 nM under setting [4].

As to `CCc1ccccc1S(=O)(=O)c1ccc(N2CC[C@H](Oc3ncccc3Cl)C2)c(CCO)c1` [Compound 1-342], under setting [3], the pIC50 was below 6.00.

As for `CC(=O)c1cc(F)ccc1Oc1ccc(N2CC[C@H](Oc3ccccn3)C2)c(CO)c1` [Compound 1-343], the pIC50 under setting [1] was 6.00 to 7.00. For the same compound, the IC50 under setting [2] was found to be 199 nM.

For `OCc1cc(Oc2ccc(Cl)c(Cl)c2)ccc1N1CC[C@H](Oc2ccccn2)C1` [Compound 1-344], the pIC50 under setting [1] is 7.00 to 8.00. For the same compound, under setting [2], the IC50 stood at 65.3 nM.

In the case of `COc1ccccc1Oc1ccc(N2CC[C@H](Oc3ccc(C)cn3)C2)c(CO)c1` [Compound 1-345, (S)-(5-(2-methoxyphenoxy)-2-(3-(5-methylpyridin-2-yloxy)pyrrolidin-1-yl)phenyl)methanol], under setting [1], the pIC50 is below 6.00. Besides, the IC50 under setting [2] was around 2450 nM.

Take `COc1ccccc1Oc1ccc(N2CC[C@H](Oc3ncccc3F)C2)c(CO)c1` [Compound 1-346, (S)-(2-(3-(3-fluoropyridin-2-yloxy)pyrrolidin-1-yl)-5-(2-methoxyphenoxy)phenyl)methanol]: under setting [1], the pIC50 is 6.00 to 7.00. The IC50 under setting [2] stood at 612 nM.

As for `COC(C)c1ccccc1Oc1ccc(N2CC[C@H](Oc3ccc(F)cn3)C2)c(CCO)c1` (stereo partly drawn) [Compound 1-347, 2-(2-((S)-3-(5-fluoropyridin-2-yloxy)pyrrolidin-1-yl)-5-(2-(1-methoxyethyl)phenoxy)phenyl)ethanol], the pIC50 by setting is: under setting [1], 6.00 to 7.00; under setting [3], 6.00 to 7.00. The IC50 is 220 nM under setting [2] and 198 nM under setting [4].

`COCc1ccccc1Oc1ccc(N2CC[C@H](Oc3ccccn3)C2)c(CCO)c1` [Compound 1-348, (S)-2-(5-(2-(methoxymethyl)phenoxy)-2-(3-(pyridin-2-yloxy)pyrrolidin-1-yl)phenyl) ethanol]: under setting [1], the pIC50 is below 6.00. Moreover, the IC50 under setting [2] was above 3200 nM.

With `COCc1ccccc1Oc1ccc(N2CC[C@H](Oc3ccc(C)cn3)C2)c(CCO)c1` [Compound 1-349, (S)-2-(5-(2-(methoxymethyl)phenoxy)-2-(3-(5-methylpyridin-2-yloxy)pyrrolidin-1-yl)phenyl)ethanol], the pIC50 under setting [1] was 6.00 to 7.00. For the same compound, the IC50 under setting [2] amounted to 908 nM.

Take `COCc1ccccc1Oc1ccc(N2CC[C@H](Oc3ncccc3C)C2)c(CCO)c1` [Compound 1-350, (S)-2-(5-(2-(methoxymethyl)phenoxy)-2-(3-(3-methylpyridin-2-yloxy)pyrrolidin-1-yl)phenyl)ethanol]: under setting [1], the pIC50 was 6.00 to 7.00. Moreover, the IC50 under setting [2] is 311 nM.

Regarding `COCc1ccccc1Oc1ccc(N2CC[C@H](Oc3ncccc3F)C2)c(CCO)c1` [Compound 1-351, (S)-2-(2-(3-(3-fluoropyridin-2-yloxy)pyrrolidin-1-yl)-5-(2-(methoxymethyl)phenoxy)phenyl)ethanol], the pIC50 under setting [1] was 6.00 to 7.00. The IC50 under setting [2] amounted to 461 nM.

With `CCc1ccccc1Oc1ccc(N2CC[C@H](Oc3ccc(C#N)cn3)C2)c(CO)c1` [Compound 1-352], the pIC50 under setting [1] was 6.00 to 7.00. Moreover, the IC50 under setting [2] stood at 974 nM.

For the compound `CC(C)c1ccccc1Oc1ccc(N2CC[C@H](Oc3ccc(C#N)cn3)C2)c(CO)c1` [Compound 1-353], the pIC50 under setting [1] was 7.00 to 8.00. Moreover, the IC50 under setting [2] worked out at 26.8 nM.

For `OCCc1ccc(C(O)c2ccccc2Cl)cc1N1CC[C@H](Oc2ncccc2Cl)C1` (stereo partly drawn) [Compound 1-354, 2-(4-((2-chlorophenyl)(hydroxy)methyl)-2-((S)-3-(3-chloropyridin-2-yloxy)pyrrolidin-1-yl)phenyl)ethanol], the pIC50 under setting [1] was below 6.00. The IC50 under setting [2] was 1010 nM.

For the compound `COC(C)c1ccccc1Oc1ccc(N2CC[C@H](Oc3ccc(C)cn3)C2)c(CCO)c1` (stereo partly drawn) [Compound 1-355, 2-(5-(2-(1-methoxyethyl)phenoxy)-2-((S)-3-(5-methylpyridin-2-yloxy)pyrrolidin-1-yl)phenyl)ethanol], the pIC50 under setting [1] is 6.00 to 7.00. The IC50 under setting [2] came out at 173 nM.

Consider `N#Cc1cccc(C(O)c2ccc(N3CC[C@H](Oc4ncccc4Cl)C3)c(CCO)c2)c1` (stereo partly drawn) [Compound 1-356, 3-((4-((S)-3-(3-chloropyridin-2-yloxy)pyrrolidin-1-yl)-3-(2-hydroxyethyl)phenyl)(hydroxy)methyl)benzonitrile], for which the pIC50 under setting [1] was below 6.00. The IC50 under setting [2] was above 3200 nM.

As for `COC(C)c1ccccc1Oc1ccc(N2CC[C@H](Oc3ccccn3)C2)c(CCO)c1` (stereo partly drawn) [Compound 1-357, 2-(5-(2-(1-methoxyethyl)phenoxy)-2-((S)-3(pyridin-2-yloxy)pyrrolidin-1-yl)phenyl)ethanol], under setting [1], the pIC50 was 6.00 to 7.00. Moreover, under setting [2], the IC50 amounted to 312 nM.

In the case of `CCc1c(Oc2ccc(F)c(CO)c2)ncnc1N1CC[C@H](Oc2ncccc2Cl)C1` [Compound 1-359, (S)-(5-(6-(3-(3-chloropyridin-2-yloxy)pyrrolidin-1-yl)-5-ethylpyrimidin-4-yloxy)-2-fluorophenyl)methanol], the “hTRPV3 (nM) (Phase 1)” value (Phase 1 current) is on record as “Agonist (Phase 1)”.

For `O=C(c1ccc(CCO)c(N2CC[C@H](Oc3ncccc3Cl)C2)c1)c1ccccc1Cl` [Compound 1-360, (S)-(2-chlorophenyl)(3-(3-(3-chloropyridin-2-yloxy)pyrrolidin-1-yl)-4-(2-hydroxyethyl)phenyl)methanone], the pIC50 under setting [1] is 6.00 to 7.00. Moreover, under setting [2], the IC50 came out at 770 nM.

For the compound `CCc1ccccc1Oc1ccc(N2CC[C@H](Oc3ccc(C#N)cn3)C2)c(CCO)c1` [Compound 1-361], the pIC50 under setting [1] was 6.00 to 7.00. Under setting [2], the IC50 stood at 117 nM.

For `CC(C)c1ccccc1Oc1ccc(N2CC[C@H](Oc3ccc(C#N)cn3)C2)c(CCO)c1` [Compound 1-362], under setting [1], the pIC50 was 7.00 to 8.00. Moreover, the IC50 under setting [2] was determined as 61.2 nM.

For `COc1ccccc1N1CCC(Nc2ncc(C(F)(F)F)cc2Cl)C1` (centres unmarked) [Compound 1-370, 3-chloro-N-(1-(2-methoxyphenyl)pyrrolidin-3-yl)-5-(trifluoromethyl)pyridin-2-amine], the pIC50 under setting [1] was below 6.00.

With `Cc1ccccc1N1CCC(Nc2ncc(C(F)(F)F)cc2Cl)C1` (centres unmarked) [Compound 1-371, 3-chloro-N-(1-o-tolylpyrrolidin-3-yl)-5-(trifluoromethyl)pyridin-2-amine], the pIC50 is, setting by setting: under setting [1], below 6.00; under setting [3], below 6.00.

For the compound `NC(=O)c1cc(-c2ccccc2)ccc1N1CC[C@H](Nc2ccc(C(F)(F)F)cn2)C1` [Compound 1-372, (S)-4-(3-(5-(trifluoromethyl)pyridin-2-ylamino)pyrrolidin-1-yl)biphenyl-3-carboxamide], the pIC50 runs as follows: under setting [1], below 6.00; under setting [3], below 6.00.

Regarding `NC(=O)c1cc(-c2ccccc2)ccc1N1CC[C@H](Nc2ncccc2Cl)C1` [Compound 1-373, (S)-4-(3-(3-chloropyridin-2-ylamino)pyrrolidin-1-yl)biphenyl-3-carboxamide], the pIC50 under setting [3] is 6.00 to 7.00. Moreover, under setting [4], the IC50 is 669 nM.

For the origin of these results see patent US12435061B2 (priority 2020, dated 2025).
